{"source": "patent US7790364B2", "about": "“Compositions and methods for high throughput screening of pharmacological chaperones” (The Board of Trustees of the Leland Stanford Junior …, priority 2006, dated 2010)", "assay_type_in_all_cases": "cell-based", "key": {"4S-ΔF508 CFTR [1]": {"target": "T1, 4S-ΔF508 CFTR (Homo sapiens, UniProt P13569, DEL508-508/INS895[…])", "T1 construct": "antibodies against the CFTR C-terminus to test for complete open reading frame; 4 x S-tag (KETAAAKFERQHMDS) with GGGG spacers, in the 4th extracellular loop; expressed in transfected cells", "T1 sequence (P13569 with tags, fused parts or gaps DEL508-508/INS895[withheld])": "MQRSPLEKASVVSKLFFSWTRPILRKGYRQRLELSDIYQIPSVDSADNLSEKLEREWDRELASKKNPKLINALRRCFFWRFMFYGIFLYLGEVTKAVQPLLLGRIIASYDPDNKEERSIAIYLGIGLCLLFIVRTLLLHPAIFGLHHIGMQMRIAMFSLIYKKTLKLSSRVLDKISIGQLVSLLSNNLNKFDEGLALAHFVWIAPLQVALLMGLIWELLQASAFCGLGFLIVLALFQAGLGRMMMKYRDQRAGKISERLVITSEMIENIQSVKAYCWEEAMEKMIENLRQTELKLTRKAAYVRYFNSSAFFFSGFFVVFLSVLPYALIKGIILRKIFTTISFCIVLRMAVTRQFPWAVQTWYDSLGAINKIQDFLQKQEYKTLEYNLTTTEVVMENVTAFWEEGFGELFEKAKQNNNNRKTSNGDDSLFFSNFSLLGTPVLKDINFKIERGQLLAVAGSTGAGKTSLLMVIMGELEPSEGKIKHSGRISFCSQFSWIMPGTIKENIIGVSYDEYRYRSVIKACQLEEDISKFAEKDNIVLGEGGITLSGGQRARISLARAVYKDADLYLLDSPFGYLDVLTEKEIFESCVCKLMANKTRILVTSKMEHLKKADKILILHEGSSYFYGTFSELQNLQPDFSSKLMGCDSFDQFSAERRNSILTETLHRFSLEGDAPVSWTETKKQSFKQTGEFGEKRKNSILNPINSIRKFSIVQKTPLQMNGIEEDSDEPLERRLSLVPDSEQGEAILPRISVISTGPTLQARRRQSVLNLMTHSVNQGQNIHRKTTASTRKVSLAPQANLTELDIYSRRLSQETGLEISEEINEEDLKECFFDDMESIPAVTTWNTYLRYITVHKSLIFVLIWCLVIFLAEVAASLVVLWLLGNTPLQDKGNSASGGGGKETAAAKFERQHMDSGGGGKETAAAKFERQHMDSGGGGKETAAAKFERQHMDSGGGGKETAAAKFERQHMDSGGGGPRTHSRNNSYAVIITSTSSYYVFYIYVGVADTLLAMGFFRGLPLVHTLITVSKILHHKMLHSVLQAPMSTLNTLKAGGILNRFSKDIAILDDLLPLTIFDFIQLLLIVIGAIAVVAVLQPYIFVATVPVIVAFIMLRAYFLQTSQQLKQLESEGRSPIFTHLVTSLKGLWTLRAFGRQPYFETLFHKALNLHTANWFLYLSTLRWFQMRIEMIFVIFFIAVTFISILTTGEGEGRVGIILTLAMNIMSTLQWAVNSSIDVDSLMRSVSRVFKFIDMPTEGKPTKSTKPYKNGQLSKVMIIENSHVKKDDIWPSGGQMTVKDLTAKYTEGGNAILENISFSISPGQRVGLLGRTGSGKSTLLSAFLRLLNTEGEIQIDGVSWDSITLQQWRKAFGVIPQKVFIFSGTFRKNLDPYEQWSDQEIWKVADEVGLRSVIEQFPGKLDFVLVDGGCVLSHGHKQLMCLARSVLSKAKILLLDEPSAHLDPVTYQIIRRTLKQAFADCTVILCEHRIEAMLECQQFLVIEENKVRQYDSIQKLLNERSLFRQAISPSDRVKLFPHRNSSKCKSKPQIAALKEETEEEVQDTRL", "test": "RNAase S complementation screening assay on 4S-ΔF508 CFTR expressing CHO cells", "details": "LOPAC1280 library screen", "experimental": "Optimize conditions for homogeneous cell-based assay for ΔF508-CFTR rescue. Surface detection of S-protein tagged CFTR used reconstitution of RNAase S activity and detection with the fluorogenic probe 6-F-dArUdAdA-6-TMR.\nScreening was carried out on a customized apparatus (SAGIAN, Beckman) containing a 3-m rail Optimized Robot for Chemical Analysis that integrates the following robot-accessible instruments on a 4×2-m optical table: (a) SAGIAN 180 CO2 incubator, which holds 180 standard microplates in a storage carousel; (b) Elx405-Select plate washer with valve option and vacuum-sensing/waste alert for complex automated wash cycles; (c) SAGIAN MPS-8 CS incubator (holds eight standard microplates at 4-37±1° C.); […] SAGIAN shaker (six plate positions, frequency range 40-1100 rpm with variable amplitude); (e) Biomek 2000 liquid handling work station (installed with four positions to hold tip boxes with automatic air locks and six positions for microplates and liquid reservoirs, and MP 20 and MP 200 8-channel tip tools for liquid transfer); (f) SAGIAN carousel (holding 40 pipette tip boxes and 90 microplates); (g) SAGIAN bar code reader; (h) SAGIAN microplate lidding station with automatic vacuum control of six suction cups; (i) two FluoStar fluorescence plate readers (BMG Lab Technologies), each equipped with two-syringe pumps.\nData collection and analysis. […]"}, "4S-ΔF508 CFTR [2]": {"target": "T1, 4S-ΔF508 CFTR", "test": "Immunofluorescence labeling using polyclonal S-tag antibody", "details": "varying doses, FIG. 11"}, "4S-ΔF508 CFTR [3]": {"target": "T1, 4S-ΔF508 CFTR", "test": "FACS assay measuring S-tag epitopes at the cell surface with a polyclonal antibody", "details": "for surface expression of CFTR (FACS): different concentrations, 1 or 2 days, with or without induction of 4S tag delta F508 expression, compared with 28° C. positive control", "text": "The library was screened against 4S-ΔF508 CFTR expressing CHO cells using the assay described in Example 2 above. Each of these compounds was retested using an FACS assay to measure S-tag epitopes at the cell surface with a polyclonal antibody, as shown in FIG. 8."}, "4S-ΔF508 CFTR [4]": {"target": "T1, 4S-ΔF508 CFTR", "test": "Western blotting of CFTR expression in cells exposed to compound", "details": "FIG. 10"}}}
{"compound": "O=C(/C=C/c1ccc(O)cc1)c1ccc(O)cc1O", "note": "[Compound 6, 4,2′,4′-trihydroxychalcone]", "values": [{"measurement": "activity in the assays of the invention", "setting": "4S-ΔF508 CFTR [1]", "result": "active"}, {"measurement": "expression by immunofluorescence labeling using polyclonal S-tag antibody", "setting": "4S-ΔF508 CFTR [2]", "result": "increased expression"}, {"measurement": "activity in the rescreening assays", "setting": "4S-ΔF508 CFTR [3]; FACS, S-tag epitopes at the cell surface", "result": "active"}, {"measurement": "surface expression of CFTR (FACS)", "setting": "4S-ΔF508 CFTR [3]", "result": "significant, dose dependent increase"}, {"measurement": "surface expression of CFTR (FACS)", "setting": "4S-ΔF508 CFTR [3]; listed as isoliquiritigenin", "result": "significant and dose-dependent upregulation"}, {"measurement": "expression of the protein assessed by western blotting", "setting": "4S-ΔF508 CFTR [4]", "result": "increased expression"}]}
